Assay results as given in patent US8598355B2, “Amide compound” (Astellas Pharma Inc., priority 2008, dated 2013).

Tests used:
rat EP4 receptor [1] = molecular target: T1, rat EP4 receptor (Rattus norvegicus, UniProt P43114); assay: Rat EP4 receptor antagonistic activity by measurement of cAMP amount (rEP4 cAMP HTRF assay, CHO cells); type: cell-based; parameters: expressed in transfected cells; settings: inhibition of cAMP, PGE2 100 nM, CHO cells expressing rat EP4
Method: Evaluation Test of Rat EP4 Receptor Antagonistic Activity by Measurement of cAMP Amount
CHO cells in which rat EP4 had been forced to be expressed were seeded in 96-well plates at 2×10^4 cells/100 μL and cultured overnight. The culture medium was replaced with 2 μM Indomethacin/0.1% BSA/alpha-MEM, and further, after 60 minutes, replaced with 1 mM IBMX/2 μM Indomethacin/0.1% BSA/alpha-MEM. After 10 minutes, the test compound was added, and further, after 10 minutes, PGE2 was added at a final concentration of 100 nM. The cells were cultured and reacted in a CO2 incubator (37° C., 5% CO2). After 30 minutes, the culture medium was removed and 100 μL/well of 0.2% Triton X-PBS was added for lysis of the cells. The cAMP contained in this cell lysis solution was measured with a cAMP HiRange kit (Cisbio international). The cell lysis solution was disperesed at 10 μL each into a 384-well U-bottom black microplate (Corning), and a d2 reagent and an europium cryptate reagent were added in this order to each well, each in an amount of 5 μL. It was incubated at room temperature for 60 minutes under light shielding. After incubation, the fluorescence of the cryptate at 620 nm and the fluorescence of the d2 at 655 nm were measured using ARVO1420 (PerkinElmer). The cAMPs of 280, 70, 17.5, 4.38, 1.09, 0.27, and 0.068 nM were measured simultaneously for creating a standard curve. The inhibitory rates were calculated by determining the cAMP amount of each test sample to the value obtained by subtracting the cAMP amount of the group without addition of PGE2 from the cAMP amount of the group with addition of PGE2 of 100 nM. IC50 values are calculated by a Logistic regression method.

rat EP4 receptor [2] = molecular target: T1, rat EP4 receptor; assay: In vivo rat EP4 receptor antagonistic activity (ONO-4819/LPS, plasma TNF-α); settings: SD rat, oral
Method: Evaluation Test of In Vivo Rat EP4 Receptor Antagonistic Activity
A solution of PEG 400:20% Tween 80:aqueous 1 M NaHCO3 solution=1:4:5 of a test compound was orally administered to a SD rat (male, 6-week old) under non-fasting conditions, and after 1 hour, ONO-4819 was administered subcutaneously to the back of the rat. After 30 minutes, Lipopolysaccharide (LPS, 0.01 mg/kg) was administered to the tail vein without anesthesia, and after 60 minutes, 0.5 mL of heparin blood was collected from the fundus under ether anesthesia. The blood sample was centrifuged (3000 rpm, 10 minutes) to separate the plasma, and then the TNF-α concentration in the rat plasma was measured by an ELISA kit (see Hepatology Research Journal, vol. 21, 252-260, 2001). A value obtained by subtracting the TNF-α concentration of the group treated with ONO-4819 from the TNF-α concentration of the group not treated with ONO-4819 was taken as 100%, and the inhibitory rates to the value were calculated for the test compounds.
In this connection, Ex represents the below-described Example compound number.

T1 sequence (P43114 whole entry): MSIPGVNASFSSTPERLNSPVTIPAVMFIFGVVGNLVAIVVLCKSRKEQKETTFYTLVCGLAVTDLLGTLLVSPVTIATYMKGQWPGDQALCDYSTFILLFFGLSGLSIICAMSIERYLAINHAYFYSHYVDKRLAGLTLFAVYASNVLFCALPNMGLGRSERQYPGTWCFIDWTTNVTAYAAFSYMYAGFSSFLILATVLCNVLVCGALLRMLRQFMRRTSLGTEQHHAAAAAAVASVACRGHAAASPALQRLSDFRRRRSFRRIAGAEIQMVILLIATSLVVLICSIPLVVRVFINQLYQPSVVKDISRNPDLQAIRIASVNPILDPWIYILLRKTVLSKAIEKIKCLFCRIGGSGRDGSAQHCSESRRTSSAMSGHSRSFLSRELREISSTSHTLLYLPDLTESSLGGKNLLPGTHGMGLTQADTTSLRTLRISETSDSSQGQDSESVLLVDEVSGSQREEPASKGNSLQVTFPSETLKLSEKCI

SMILES	IC50 (rat EP4 receptor [1]) [nM]	Inhibitory rate (%) (rat EP4 receptor [2]; dose 0.01 mg/kg)	Inhibitory rate (%) (rat EP4 receptor [2]; dose 0.03 mg/kg)	melting point
O=C(NC[C@H]1CC[C@H](C(=O)O)CC1)c1cc(Cl)cc2ccn(Cc3ccc4ccccc4n3)c12 [Example 53]	0.9	45	–	–
O=C(O)c1ccc(CNC(=O)c2cc(Cl)cc3ccn(Cc4ccc5ccccc5n4)c23)cc1 [Example 57]	0.76	–	113	243 to 244 °C (dec.)
O=C(NC[C@H]1CC[C@H](C(=O)O)CC1)c1cc(C(F)(F)F)cc2ccn(Cc3ccc4ccccc4n3)c12 [Example 124]	1.1	–	105	–
